In patent US20240024488A1, “COMPOUNDS AND USES THEREOF” (Foghorn Therapeutics Inc., priority 2020, published 2024):

Tests used:
HiBit-BRM fusion protein = target: T1, HiBit-BRM fusion protein (Homo sapiens, UniProt P51531); assay: HiBiT-BRM cell-based degradation assay (Nano-Glo HiBiT Lytic Detection, 24 h); settings: HeLa cell line expressing HiBiT-BRM; for DC50: read-out: BRM HiBit Degradation IC50
T1 construct: expressed in transfected cells
In short: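 Stable HiBiT-BRM HeLa line; 24 h compound exposure, top final 30 μM, 3-fold, 10 pts in duplicate. Lytic HiBiT/LgBiT luminescence readout. % degradation vs DMSO (0%) and 2 μM known BRM/BRG1 degrader (100%).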

[1] = target: T2, HiBit-BRG1 fusion protein (Homo sapiens, UniProt P51532); assay: HiBiT-BRG1 cell-based degradation assay (Nano-Glo HiBiT Lytic Detection, 24 h); settings: HeLa cell line expressing HiBit-BRG1 and LgBit; for Dmax: read-out: BRG1 HiBit Degradation Maximum (%); for DC50: read-out: BRMG1 HiBit Degradation IC50
T2 construct: expressed in transfected cells
T2 sequence (P51532 whole entry, the tested form may be a part): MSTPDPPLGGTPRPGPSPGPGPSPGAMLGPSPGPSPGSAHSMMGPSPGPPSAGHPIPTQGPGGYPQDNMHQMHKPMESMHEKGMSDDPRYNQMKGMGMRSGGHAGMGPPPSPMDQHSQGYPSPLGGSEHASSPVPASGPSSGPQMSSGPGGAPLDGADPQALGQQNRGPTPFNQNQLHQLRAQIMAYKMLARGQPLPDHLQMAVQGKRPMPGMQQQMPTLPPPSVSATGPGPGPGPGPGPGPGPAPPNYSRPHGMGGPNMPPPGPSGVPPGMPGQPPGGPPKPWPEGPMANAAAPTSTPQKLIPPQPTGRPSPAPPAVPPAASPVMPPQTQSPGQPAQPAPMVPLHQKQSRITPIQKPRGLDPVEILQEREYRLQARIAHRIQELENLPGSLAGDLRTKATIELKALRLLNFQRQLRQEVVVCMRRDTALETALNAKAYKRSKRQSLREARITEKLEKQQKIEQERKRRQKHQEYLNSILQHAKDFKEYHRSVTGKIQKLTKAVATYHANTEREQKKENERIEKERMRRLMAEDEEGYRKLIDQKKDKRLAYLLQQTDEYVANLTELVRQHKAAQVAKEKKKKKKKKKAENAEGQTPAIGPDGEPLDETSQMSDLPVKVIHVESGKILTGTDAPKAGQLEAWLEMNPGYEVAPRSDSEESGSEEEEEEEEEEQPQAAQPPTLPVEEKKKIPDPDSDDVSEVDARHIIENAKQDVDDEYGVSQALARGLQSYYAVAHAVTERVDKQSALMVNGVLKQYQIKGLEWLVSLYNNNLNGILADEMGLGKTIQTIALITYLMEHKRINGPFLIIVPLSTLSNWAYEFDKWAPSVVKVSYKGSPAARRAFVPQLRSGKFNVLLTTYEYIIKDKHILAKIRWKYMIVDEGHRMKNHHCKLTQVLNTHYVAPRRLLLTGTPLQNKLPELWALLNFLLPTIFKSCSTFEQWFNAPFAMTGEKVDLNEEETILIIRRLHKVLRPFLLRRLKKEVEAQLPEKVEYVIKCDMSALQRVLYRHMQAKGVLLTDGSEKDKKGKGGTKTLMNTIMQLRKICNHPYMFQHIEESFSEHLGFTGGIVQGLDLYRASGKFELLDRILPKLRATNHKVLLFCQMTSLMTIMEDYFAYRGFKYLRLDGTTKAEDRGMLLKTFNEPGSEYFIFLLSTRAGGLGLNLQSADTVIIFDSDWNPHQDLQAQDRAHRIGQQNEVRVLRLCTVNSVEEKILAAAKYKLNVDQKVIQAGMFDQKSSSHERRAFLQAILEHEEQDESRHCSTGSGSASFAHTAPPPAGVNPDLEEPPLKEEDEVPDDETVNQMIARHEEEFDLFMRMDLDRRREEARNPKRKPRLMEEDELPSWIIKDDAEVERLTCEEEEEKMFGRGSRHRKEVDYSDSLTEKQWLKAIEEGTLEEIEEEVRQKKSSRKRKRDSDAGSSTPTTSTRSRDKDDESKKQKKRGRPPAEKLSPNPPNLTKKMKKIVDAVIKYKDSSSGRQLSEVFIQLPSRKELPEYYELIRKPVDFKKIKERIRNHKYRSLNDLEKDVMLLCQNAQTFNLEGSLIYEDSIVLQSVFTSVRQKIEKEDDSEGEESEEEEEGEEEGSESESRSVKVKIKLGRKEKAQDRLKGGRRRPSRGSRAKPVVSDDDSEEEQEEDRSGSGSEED
In short: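 Seed 5000 HeLa HiBit-BRG1/LgBit cells per well; treat 24 h; equilibrate 15 min at room temperature; add Nano-Glo HiBiT lytic reagent, shake 10 min, read luminescence. Percent degradation is scaled between DMSO and 2 μM reference degrader wells.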

T1 sequence (P51531 whole entry, the tested form may be a part): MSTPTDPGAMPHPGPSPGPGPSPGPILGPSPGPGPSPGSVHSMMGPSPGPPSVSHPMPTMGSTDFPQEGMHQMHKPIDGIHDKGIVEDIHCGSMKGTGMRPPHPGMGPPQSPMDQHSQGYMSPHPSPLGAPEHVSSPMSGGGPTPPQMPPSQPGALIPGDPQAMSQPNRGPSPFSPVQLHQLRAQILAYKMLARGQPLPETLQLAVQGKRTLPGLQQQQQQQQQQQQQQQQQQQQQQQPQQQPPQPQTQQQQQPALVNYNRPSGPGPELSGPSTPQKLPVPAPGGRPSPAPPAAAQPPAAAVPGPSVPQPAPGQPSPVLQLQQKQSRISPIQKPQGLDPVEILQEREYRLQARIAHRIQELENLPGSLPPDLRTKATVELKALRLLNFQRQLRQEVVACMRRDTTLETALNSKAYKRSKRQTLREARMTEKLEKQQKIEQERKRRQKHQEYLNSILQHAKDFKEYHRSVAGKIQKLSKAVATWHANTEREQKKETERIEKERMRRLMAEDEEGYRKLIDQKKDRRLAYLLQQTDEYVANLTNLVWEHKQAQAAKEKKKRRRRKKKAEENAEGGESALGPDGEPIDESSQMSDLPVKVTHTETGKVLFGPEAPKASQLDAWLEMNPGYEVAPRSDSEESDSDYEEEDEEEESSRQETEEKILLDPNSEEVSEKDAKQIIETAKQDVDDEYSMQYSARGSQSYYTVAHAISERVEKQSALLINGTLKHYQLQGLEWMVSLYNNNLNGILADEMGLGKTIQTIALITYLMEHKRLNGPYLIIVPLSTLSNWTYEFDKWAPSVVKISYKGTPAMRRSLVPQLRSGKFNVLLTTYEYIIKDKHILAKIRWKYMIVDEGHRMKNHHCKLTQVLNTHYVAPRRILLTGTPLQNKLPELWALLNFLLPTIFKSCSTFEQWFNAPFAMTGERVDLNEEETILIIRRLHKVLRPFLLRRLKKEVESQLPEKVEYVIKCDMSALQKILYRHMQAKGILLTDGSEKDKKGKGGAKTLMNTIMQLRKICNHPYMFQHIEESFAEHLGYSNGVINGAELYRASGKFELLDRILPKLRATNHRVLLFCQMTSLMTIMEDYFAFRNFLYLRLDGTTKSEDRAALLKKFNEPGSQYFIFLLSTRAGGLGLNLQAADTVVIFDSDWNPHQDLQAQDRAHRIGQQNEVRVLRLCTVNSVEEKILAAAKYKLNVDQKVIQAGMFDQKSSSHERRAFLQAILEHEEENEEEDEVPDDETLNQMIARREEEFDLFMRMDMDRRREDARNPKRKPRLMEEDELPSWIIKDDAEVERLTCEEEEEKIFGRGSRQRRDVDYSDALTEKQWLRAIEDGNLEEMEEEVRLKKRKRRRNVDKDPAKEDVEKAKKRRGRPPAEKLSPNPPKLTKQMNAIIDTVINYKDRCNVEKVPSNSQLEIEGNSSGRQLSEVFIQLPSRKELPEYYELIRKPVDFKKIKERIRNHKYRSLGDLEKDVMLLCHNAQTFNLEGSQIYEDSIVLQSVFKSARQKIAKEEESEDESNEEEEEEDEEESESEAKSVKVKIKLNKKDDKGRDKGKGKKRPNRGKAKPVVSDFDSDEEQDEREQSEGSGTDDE

Structure (SMILES) | BRM HiBit Degradation Maximum (%) (HiBit-BRM fusion protein) | Dmax [1] | DC50 (HiBit-BRM fusion protein) | DC50 [1]
Cc1ncsc1-c1ccc([C@H](C)NC(=O)[C@@H]2C[C@@H](O)CN2C(=O)[C@@H](c2cc(OCCN3C[C@@H]4[C@H](C3)[C@H]4c3c[nH]c4nnc(-c5ccccc5O)cc34)no2)C(C)C)cc1 (racemic) [Compound 210, (2S,4R)-4-hydroxy-1-((R)-2-(3-(2-((1R,5S,6S)-6-(3-(2-hydroxyphenyl)-7H-pyrrolo[2,3-c]pyridazin-5-yl)-3-azabicyclo[3.1.0]hexan-3-yl)ethoxy)isoxazol-5-yl)-3-methylbutanoyl)-N-((S)-1-(4-(4-methylthiazol-5-yl)phenyl)ethyl)pyrrolidine-2-carboxamide] | C (“C” indicates maximum degradation < 50%) | < 50% | – | –
Cc1ncsc1-c1ccc([C@H](C)NC(=O)[C@@H]2C[C@@H](O)CN2C(=O)[C@@H](c2cc(OCCCN3CC4(CC(c5c[nH]c6nnc(-c7ccccc7O)cc56)C4)C3)no2)C(C)C)cc1 (racemic) [Compound 211, (2S,4R)-4-hydroxy-1-((R)-2-(3-(3-(6-(3-(2-hydroxyphenyl)-7H-pyrrolo[2,3-c]pyridazin-5-yl)-2-azaspiro[3.3]heptan-2-yl)propoxy)isoxazol-5-yl)-3-methylbutanoyl)-N-((S)-1-(4-(4-methylthiazol-5-yl)phenyl)ethyl)pyrrolidine-2-carboxamide] | A (“A” indicates maximum degradation ≥ 75%) | > 75% | > 10 nM | > 100 nM
Cc1ncsc1-c1ccc([C@H](C)NC(=O)[C@@H]2C[C@@H](O)CN2C(=O)[C@@H](c2cc(OCCNCc3cc4cc(-c5ccccc5O)nnc4[nH]3)no2)C(C)C)cc1 (racemic) [Compound 212, (2S,4R)-4-hydroxy-1-((R)-2-(3-(2-(((3-(2-hydroxyphenyl)-7H-pyrrolo[2,3-c]pyridazin-6-yl)methyl)amino)ethoxy)isoxazol-5-yl)-3-methylbutanoyl)-N-((S)-1-(4-(4-methylthiazol-5-yl)phenyl)ethyl)pyrrolidine-2-carboxamide] | A (“A” indicates maximum degradation ≥ 75%) | < 50% | > 100 nM | –
Cc1ncsc1-c1ccc([C@H](C)NC(=O)[C@@H]2C[C@@H](O)CN2C(=O)[C@@H](c2cc(OCCNCC34CC(c5cc6cc(-c7ccccc7O)nnc6[nH]5)(C3)C4)no2)C(C)C)cc1 (racemic) [Compound 213, (2S,4R)-4-hydroxy-1-((R)-2-(3-(2-(((3-(3-(2-hydroxyphenyl)-7H-pyrrolo[2,3-c]pyridazin-6-yl)bicyclo[1.1.1]pentan-1-yl)methyl)amino)ethoxy)isoxazol-5-yl)-3-methylbutanoyl)-N-((S)-1-(4-(4-methylthiazol-5-yl)phenyl)ethyl)pyrrolidine-2-carboxamide] | A (“A” indicates maximum degradation ≥ 75%) | > 75% | > 10 nM | > 100 nM
Cc1ncsc1-c1ccc([C@H](C)NC(=O)[C@@H]2C[C@@H](O)CN2C(=O)[C@@H](c2cc(OCCCN3CCN(Cc4cc5cc(-c6ccccc6O)nnc5[nH]4)CC3)no2)C(C)C)cc1 (racemic) [Compound 214, (2S,4R)-4-hydroxy-1-((R)-2-(3-(3-(4-((3-(2-hydroxyphenyl)-7H-pyrrolo[2,3-c]pyridazin-6-yl)methyl)piperazin-1-yl)propoxy)isoxazol-5-yl)-3-methylbutanoyl)-N-((S)-1-(4-(4-methylthiazol-5-yl)phenyl)ethyl)pyrrolidine-2-carboxamide] | A (“A” indicates maximum degradation ≥ 75%) | > 75% | > 100 nM | > 100 nM
Cc1ncsc1-c1ccc([C@H](C)NC(=O)[C@@H]2C[C@@H](O)CN2C(=O)[C@H](c2cc(OCCCN3C[C@@H]4[C@H](C3)[C@H]4c3cc4cc(-c5ccccc5O)nnc4[nH]3)no2)C(C)C)cc1 (racemic) [Compound 215, (2S,4R)-4-hydroxy-1-((S)-2-(3-(3-((1R,5S,6S)-6-(3-(2-hydroxyphenyl)-7H-pyrrolo[2,3-c]pyridazin-6-yl)-3-azabicyclo[3.1.0]hexan-3-yl)propoxy)isoxazol-5-yl)-3-methylbutanoyl)-N-((S)-1-(4-(4-methylthiazol-5-yl)phenyl)ethyl)pyrrolidine-2-carboxamide] | C (“C” indicates maximum degradation < 50%) | < 50% | – | –
Cc1ncsc1-c1ccc([C@H](C)NC(=O)[C@@H]2C[C@@H](O)CN2C(=O)[C@@H](c2cc(OCCCN3C[C@@H]4[C@H](C3)[C@H]4c3cc4cc(-c5ccccc5O)nnc4[nH]3)no2)C(C)C)cc1 (racemic) [Compound 216, (2S,4R)-4-hydroxy-1-((R)-2-(3-(3-((1R,5S,6R)-6-(3-(2-hydroxyphenyl)-7H-pyrrolo[2,3-c]pyridazin-6-yl)-3-azabicyclo[3.1.0]hexan-3-yl)propoxy)isoxazol-5-yl)-3-methylbutanoyl)-N-((S)-1-(4-(4-methylthiazol-5-yl)phenyl)ethyl)pyrrolidine-2-carboxamide] | A (“A” indicates maximum degradation ≥ 75%) | < 50% | > 100 nM | –
Cc1ncsc1-c1ccc([C@H](C)NC(=O)[C@@H]2C[C@@H](O)CN2C(=O)[C@@H](c2cc(OCCNC34CC(c5[nH]c6nnc(-c7ccccc7O)cc6c5C)(C3)C4)no2)C(C)C)cc1 (racemic) [Compound 220, (2S,4R)-4-hydroxy-1-((R)-2-(3-(2-((3-(3-(2-hydroxyphenyl)-5-methyl-7H-pyrrolo[2,3-c]pyridazin-6-yl)bicyclo[1.1.1]pentan-1-yl)amino)ethoxy)isoxazol-5-yl)-3-methylbutanoyl)-N-((S)-1-(4-(4-methylthiazol-5-yl)phenyl)ethyl)pyrrolidine-2-carboxamide] | A (“A” indicates maximum degradation ≥ 75%) | > 75% | < 10 nM | > 10 nM
Cc1ncsc1-c1ccc([C@H](C)NC(=O)[C@@H]2C[C@@H](O)CN2C(=O)[C@@H](c2cc(OCCN(C)CCC(=O)N3CC(c4c[nH]c5nnc(-c6ccccc6O)cc45)C3)no2)C(C)C)cc1 (racemic) [Compound 221, (2S,4R)-4-hydroxy-1-((R)-2-(3-(2-((3-(3-(3-(2-hydroxyphenyl)-7H-pyrrolo[2,3-c]pyridazin-5-yl)azetidin-1-yl)-3-oxopropyl)(methyl)amino)ethoxy)isoxazol-5-yl)-3-methylbutanoyl)-N-((S)-1-(4-(4-methylthiazol-5-yl)phenyl)ethyl)pyrrolidine-2-carboxamide] | B (“B” indicates maximum degradation ≥ 50%) | < 50% | > 100 nM | –
Cc1ncsc1-c1ccc([C@H](C)NC(=O)[C@@H]2C[C@@H](O)CN2C(=O)[C@@H](c2cc(OCCN(C)Cc3cc4cc(-c5ccccc5O)nnc4[nH]3)no2)C(C)C)cc1 (racemic) [Compound 222, (2S,4R)-4-hydroxy-1-((R)-2-(3-(2-(((3-(2-hydroxyphenyl)-7H-pyrrolo[2,3-c]pyridazin-6-yl)methyl)(methyl)amino)ethoxy)isoxazol-5-yl)-3-methylbutanoyl)-N-((S)-1-(4-(4-methylthiazol-5-yl)phenyl)ethyl)pyrrolidine-2-carboxamide] | B (“B” indicates maximum degradation ≥ 50%) | < 50% | > 10 nM | –
